Tested on: ATF4 luciferase reporter in HEK293T cells
Experiment: ATF4-Luc assay (ATF4 luciferase reporter, tunicamycin-treated HEK293T cells)
Format: cell-based, human
Conditions: Homo sapiens, HEK-293T; HEK293T cells carrying the ATF4 luciferase reporter, 1 μg/mL tunicamycin, 7 hours
Experimental: In order to test exemplary compounds of the invention in a cellular context, a stable VWMD cell line was first constructed. The ATF4 reporter was prepared by fusing the human full-length ATF4 5′-UTR (NCBI Accession No. BC022088.2) in front of the firefly luciferase (FLuc) coding sequence lacking the initiator methionine as described in Sidrauski et al (eLife 2013). The construct was used to produce recombinant retroviruses using standard methods and the resulting viral supernatant was used to transduce HEK293T cells, which were then subsequently selected with puromycin to generate a stable cell line.
HEK293T cells carrying the ATF4 luciferase reporter were plated on polylysine coated 384-well plates (Greiner Bio-one) at 30,000 cells per well. Cells were treated the next day with 1 μg/mL tunicamycin and 200 nM of a compound of Formula (I) for 7 hours. Luminescence was measured using One Glo (Promega) as specified by the manufacturer. Cells were maintained in DMEM with L-glutamine supplemented with 10% heat-inactivated FBS (Gibco) and Antibiotic-Antimycotic solution (Gibco).
Table 2 below summarizes the EC50 data obtained using the ATF4-Luc assay for exemplary compounds of the invention.

SMILES | EC50 [µM]
O=C(CCc1ccc(Cl)cc1)NC12CC(NC(=O)COc3ccc(Cl)c(F)c3)(C1)C2 [Compound 102, N-{3-[2-(4-chloro-3-fluorophenoxy)acetamido]bicyclo[1.1.1]pentan-1-yl}-3-(4-chlorophenyl)propanamide] | 0.05 to 0.25
O=C(COc1ccc(Cl)cc1)NC12C3C4C1C1C2C3C41NC(=O)COc1ccc(Cl)cc1 (stereo not shown) [Compound 103, N,N′-(pentacyclo[4.2.0.0^2,50^3,80^4,7]octane-1,4-diyl)bis[2-(4-chlorophenoxy)-acetamide]] | 0.01 to 0.05
O=C(CCn1ncc(Cl)cc1=O)NC12CC(NC(=O)COc3ccc(Cl)c(F)c3)(C1)C2 [Compound 104, N-{3-[2-(4-chloro-3-fluorophenoxy)acetamido]bicyclo[1.1.1]pentan-1-yl}-3-(4-chloro-6-oxopyridazin-1(6H)-yl)propanamide] | 0.25 to 0.5
O=C(COc1ccc(Cl)c(Cl)c1)NC12CC(NC(=O)COc3cnc(C(F)(F)F)cn3)(C1)C2 [Compound 105, 2-(3,4-dichlorophenoxy)-N-[3-(2-{[5-(trifluoromethyl)pyrazin-2-yl]oxy}acetamido)bicyclo[1.1.1]pentan-1-yl]acetamide] | 0.01 to 0.05
O=C(COc1ccc(Cl)c(Cl)c1)NC12CC(NC(=O)COc3ccc(Cl)c(Cl)c3)(C1)C2 [Compound 106, N,N′-(bicyclo[1.1.1]pentane-1,3-diyl)bis[2-(3,4-dichlorophenoxy)acetamide]] | < 0.01
O=C(COc1ccc(Cl)c(F)c1)NC12CC(NC(=O)COc3cnc(C(F)(F)F)cn3)(C1)C2 [Compound 107, 2-(4-chloro-3-fluorophenoxy)-N-[3-(2-{[5-(trifluoromethyl)pyrazin-2-yl]oxy}acetamido)bicyclo[1.1.1]pentan-1-yl]acetamide] | 0.05 to 0.25
O=C(COc1ccc(Cl)c(F)c1)NC12CC(NC(=O)COc3ccc4cn[nH]c4c3)(C1)C2 [Compound 108, 2-(4-chloro-3-fluorophenoxy)-N-(3-{2-[(1H-indazol-6-yl)oxy]acetamido}-bicyclo[1.1.1]pentan-1-yl)acetamide] | 0.01 to 0.05
O=C(COc1ccc2cn[nH]c2c1)NC12CC(NC(=O)COc3ccc4cn[nH]c4c3)(C1)C2 [Compound 109, N,N′-(bicyclo[1.1.1]pentane-1,3-diyl)bis{2-[(1H-indazol-6-yl)oxy]acetamide}] | 0.5 to 2
Cc1noc2cc(OCC(=O)NC34CC(NC(=O)COc5ccc(Cl)c(F)c5)(C3)C4)ccc12 [Compound 110, 2-(4-chloro-3-fluorophenoxy)-N-(3-{2-[(3-methyl-1,2-benzoxazol-6-yl)oxy]acetamido}bicyclo[1.1.1]pentan-1-yl)acetamide] | 0.5 to 2
O=C(COc1ccc(Cl)c(F)c1)NC12CC(NC(=O)COc3cc(F)c4cn[nH]c4c3)(C1)C2 [Compound 111, 2-(4-chloro-3-fluorophenoxy)-N-(3-{2-[(4-fluoro-1H-indazol-6-yl)oxy]acetamido}-bicyclo[1.1.1]pentan-1-yl)acetamide] | < 0.01
O=C(COc1ccc(Cl)cc1)NC12CC(NCCOc3ccc(Cl)cc3)(C1)C2 [Compound 113, 2-(4-chlorophenoxy)-N-(3-{[2-(4-chlorophenoxy)ethyl]amino}bicyclo-[1.1.1]pentan-1-yl)acetamide] | 0.05 to 0.25
Cc1cccc(OCC(=O)NC23CC(NC(=O)COc4ccc(Cl)cc4)(C2)C3)c1 [Compound 114, 2-(4-chlorophenoxy)-N-{3-[2-(3-methylphenoxy)acetamido]bicyclo[1.1.1]-pentan-1-yl}acetamide] | 0.01 to 0.05
Cc1ccc(OCC(=O)NC23CC(NC(=O)COc4ccc(Cl)cc4)(C2)C3)cc1 [Compound 115, 2-(4-chlorophenoxy)-N-{3-[2-(4-methylphenoxy)acetamido]bicyclo-[1.1.1]pentan-1-yl}acetamide] | 0.05 to 0.25
Cc1cc(OCC(=O)NC23CC(NC(=O)COc4ccc(Cl)cc4)(C2)C3)ccc1Cl [Compound 116, 2-(4-chloro-3-methylphenoxy)-N-{3-[2-(4-chlorophenoxy)acetamido]bicyclo-[1.1.1]pentan-1-yl}acetamide] | < 0.01
O=C(COc1ccc(Cl)cc1)NC12CC(NC(=O)COc3ccc(Cl)c(Cl)c3)(C1)C2 [Compound 117, 2-(4-chlorophenoxy)-N-{3-[2-(3,4-dichlorophenoxy)acetamido]bicyclo-[1.1.1]pentan-1-yl}acetamide] | < 0.01
O=C(COc1ccc(Cl)cc1)NC12CC(NC(=O)COc3cccc(Cl)c3)(C1)C2 [Compound 118, 2-(4-chlorophenoxy)-N-{3-[2-(3-chlorophenoxy)acetamido]bicyclo-[1.1.1]pentan-1-yl}acetamide] | 0.01 to 0.05
O=C(COc1ccc(Cl)cc1)NC12CC(NC(=O)COc3cccc(F)c3)(C1)C2 [Compound 119, 2-(4-chlorophenoxy)-N-{3-[2-(3-fluorophenoxy)acetamido]-bicyclo[1.1.1]pentan-1-yl}acetamide] | 0.05 to 0.25
O=C(COc1ccc(F)cc1)NC12CC(NC(=O)COc3ccc(Cl)cc3)(C1)C2 [Compound 120, 2-(4-chlorophenoxy)-N-{3-[2-(4-fluorophenoxy)acetamido]bicyclo-[1.1.1]pentan-1-yl}acetamide] | 0.01 to 0.05
O=C(COc1ccc(Cl)c(F)c1)NC12CC(NC(=O)COc3ccc(Cl)c(Cl)c3)(C1)C2 [Compound 121, 2-(4-chloro-3-fluorophenoxy)-N-{3-[2-(3,4-dichlorophenoxy)acetamido]-bicyclo[1.1.1]pentan-1-yl}acetamide] | < 0.01
O=C(COc1ccc(Cl)c(Cl)c1)NC12CC(NC(=O)COc3ccc(Cl)cc3F)(C1)C2 [Compound 122, 2-(4-chloro-2-fluorophenoxy)-N-{3-[2-(3,4-dichlorophenoxy)acetamido]-bicyclo[1.1.1]pentan-1-yl}acetamide] | < 0.01
O=C(COc1ccc(Cl)c(Cl)c1)NC12CC(NCCOc3ccc(Cl)cc3F)(C1)C2 [Compound 123, N-(3-{[2-(4-chloro-2-fluorophenoxy)ethyl]amino}bicyclo[1.1.1]pentan-1-yl)-2-(3,4-dichlorophenoxy)acetamide] | 0.01 to 0.05
O=C(COc1ccc(Cl)c(Cl)c1)NC12CC(NCCOc3ccc(Cl)c(F)c3)(C1)C2 [Compound 124, N-(3-{[2-(4-chloro-3-fluorophenoxy)ethyl]amino}bicyclo[1.1.1]pentan-1-yl)-2-(3,4-dichlorophenoxy)acetamide] | 0.01 to 0.05
O=C(COc1ccc(Cl)c(Cl)c1)NC12CC(NCCOc3ccc(Cl)c(Cl)c3)(C1)C2 [Compound 125, 2-(3,4-dichlorophenoxy)-N-(3-{[2-(3,4-dichlorophenoxy)ethyl]amino}-bicyclo[1.1.1]pentan-1-yl)acetamide] | < 0.01
COc1cc(OCC(=O)NC23CC(NC(=O)COc4ccc(Cl)c(F)c4)(C2)C3)ccc1Cl [Compound 126, 2-(4-chloro-3-fluorophenoxy)-N-{3-[2-(4-chloro-3-methoxyphenoxy)acetamido]-bicyclo[1.1.1]pentan-1-yl}acetamide] | < 0.01
CS(=O)(=O)c1ccc(OCC(=O)NC23CC(NC(=O)COc4ccc(Cl)c(F)c4)(C2)C3)cc1 [Compound 127, 2-(4-chloro-3-fluorophenoxy)-N-(3-{2-[4-(methanesulfonyl)-phenoxy]acetamido}-bicyclo[1.1.1]pentan-1-yl)acetamide] | 0.5 to 2

Source: patent US20240166652A1, “MODULATORS OF THE INTEGRATED STRESS PATHWAY” (Calico Life Sciences LLC, priority 2017, published 2024)
